According to PubChem BioAssay (NCI):
Where “and” joins values, the source holds several entries; their conditions need not be identical. Identical values can stand only once.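 Protocol summary: plate cells (96-well), add compound at 5 concentrations, incubate 48 h, interpolate endpoints linearly. The concentration for 50% growth inhibition is given as GI50. The concentration for full growth arrest is given as TGI.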

Legend:
Assay in all cases: DTP human tumour cell line panel, 48 h
A549 NSCLC = test system: A549 NSCLC
MALME-3M melanoma = test system: MALME-3M melanoma
OVCAR-3 ovarian = test system: OVCAR-3 ovarian
MDA-MB-231 breast = test system: MDA-MB-231 breast
HS 578T breast = test system: HS 578T breast
COLO 205 colon = test system: COLO 205 colon
OVCAR-5 ovarian = test system: OVCAR-5 ovarian
SNB-19 CNS = test system: SNB-19 CNS
IGROV1 ovarian = test system: IGROV1 ovarian
HOP-62 NSCLC = test system: HOP-62 NSCLC

## COCC1(CO)C(=O)C2CCN1CC2 (stereo unspecified)
A549 NSCLC
  GI50: > 79 µM
  TGI: > 100 µM
MALME-3M melanoma
  GI50: 12.6 µM
  TGI: 28.3 µM
OVCAR-3 ovarian
  GI50: 14.2 µM
  TGI: 29.4 µM
MDA-MB-231 breast
  GI50: 17.2 µM
  TGI: 32 µM
HS 578T breast
  GI50: > 67.5 µM
  TGI: > 100 µM
COLO 205 colon
  GI50: 16.8 µM
  TGI: 35.8 µM
OVCAR-5 ovarian
  GI50: 26.2 µM
  TGI: > 55.7 µM
SNB-19 CNS
  GI50: > 69 µM
  TGI: > 100 µM
IGROV1 ovarian
  GI50: 18.4 µM
  TGI: 40.6 µM
HOP-62 NSCLC
  GI50: > 100 µM
  TGI: > 100 µM

## NC(=O)c1cc(S(=O)(=O)Nc2nnc(-c3ccccc3)c(-c3ccccc3)n2)c(SCc2ccccc2)cc1Cl
A549 NSCLC
  GI50: > 100 µM
  TGI: > 100 µM
MALME-3M melanoma
  GI50: > 100 µM
  TGI: > 100 µM
OVCAR-3 ovarian
  GI50: > 100 µM
  TGI: > 100 µM
MDA-MB-231 breast
  GI50: > 85.4 µM
  TGI: > 100 µM
HS 578T breast
  GI50: > 44.4 µM
  TGI: > 75.5 µM
COLO 205 colon
  GI50: > 100 µM
  TGI: > 100 µM
OVCAR-5 ovarian
  GI50: > 100 µM
  TGI: > 100 µM
SNB-19 CNS
  GI50: > 100 µM
  TGI: > 100 µM
IGROV1 ovarian
  GI50: > 54.7 µM
  TGI: > 94.3 µM
HOP-62 NSCLC
  GI50: > 100 µM
  TGI: > 100 µM

## CC[C@H]1CN2CCc3cc(OC)c(OC)cc3[C@@H]2C[C@@H]1C[C@H]1NCCc2c1[nH]c1ccc(O)cc21
A549 NSCLC
  GI50: 0.0192 µM and 0.0336 µM
  TGI: 0.0627 µM and 0.121 µM and 0.321 µM
MALME-3M melanoma
  GI50: 0.047 µM and 0.336 µM
  TGI: 0.113 µM and 0.744 µM and 0.184 µM
OVCAR-3 ovarian
  GI50: 0.0156 µM
  TGI: 0.0622 µM and 0.089 µM and 0.25 µM
MDA-MB-231 breast
  GI50: 0.0153 µM
  TGI: 0.0483 µM
HS 578T breast
  TGI: 0.0653 µM and 0.0327 µM
COLO 205 colon
  GI50: 0.019 µM and 0.0187 µM
  TGI: 0.0339 µM and 0.0347 µM and < 0.0117 µM
OVCAR-5 ovarian
  GI50: 0.0246 µM and 0.0401 µM
  TGI: 0.091 µM and 0.335 µM and 0.379 µM
SNB-19 CNS
  GI50: 0.0249 µM and 0.0636 µM
IGROV1 ovarian
  GI50: 0.0267 µM and 0.0328 µM
  TGI: 0.0806 µM and 0.159 µM and 0.196 µM
HOP-62 NSCLC
  GI50: 0.0264 µM and 0.0298 µM
  TGI: 0.0748 µM and 0.0941 µM and 0.0488 µM

## OCCCNc1nccc(-c2c(-c3ccc(F)cc3)nn3cc(C(F)(F)F)ccc23)n1
A549 NSCLC
  GI50: 17.3 µM
  TGI: > 25 µM
MALME-3M melanoma
  GI50: 14.8 µM
  TGI: > 25 µM
OVCAR-3 ovarian
  GI50: 15.1 µM
  TGI: > 25 µM
MDA-MB-231 breast
  GI50: 24.6 µM
  TGI: > 25 µM
HS 578T breast
  GI50: 19.2 µM
  TGI: > 25 µM
COLO 205 colon
  GI50: 12.5 µM
  TGI: > 25 µM
OVCAR-5 ovarian
  GI50: > 22.9 µM
  TGI: > 25 µM
SNB-19 CNS
  GI50: > 25 µM
  TGI: > 25 µM
IGROV1 ovarian
  GI50: 12 µM
  TGI: > 25 µM
HOP-62 NSCLC
  GI50: > 23.4 µM
  TGI: > 25 µM

## O=C(CSC1CCc2ccccc21)N/N=C/c1ccccc1O (stereo unspecified)
A549 NSCLC
  GI50: 4.81 µM
  TGI: > 100 µM
MALME-3M melanoma
  GI50: 6.4 µM
  TGI: 42.3 µM
OVCAR-3 ovarian
  GI50: 4.67 µM
  TGI: 48.9 µM
MDA-MB-231 breast
  GI50: 3.98 µM
  TGI: 39.6 µM
HS 578T breast
  GI50: 11.7 µM
  TGI: 67.2 µM
COLO 205 colon
  GI50: 5.87 µM
  TGI: > 100 µM
OVCAR-5 ovarian
  GI50: 8.8 µM
  TGI: > 100 µM
SNB-19 CNS
  GI50: 6.11 µM
  TGI: > 100 µM
IGROV1 ovarian
  GI50: 2.24 µM
  TGI: 37.4 µM
HOP-62 NSCLC
  GI50: 10.8 µM
  TGI: > 100 µM

## O=C1NC(=NCCc2cccc(Cl)c2)S/C1=C\c1ccc2ncccc2c1
A549 NSCLC
  GI50: > 25 µM
  TGI: > 25 µM
MALME-3M melanoma
  GI50: > 25 µM
  TGI: > 25 µM
OVCAR-3 ovarian
  GI50: > 25 µM
  TGI: > 25 µM
MDA-MB-231 breast
  GI50: > 25 µM
  TGI: > 25 µM
HS 578T breast
  GI50: > 25 µM
  TGI: > 25 µM
COLO 205 colon
  GI50: > 25 µM
  TGI: > 25 µM
OVCAR-5 ovarian
  GI50: > 25 µM
  TGI: > 25 µM
SNB-19 CNS
  GI50: > 25 µM
  TGI: > 25 µM
IGROV1 ovarian
  GI50: > 25 µM
  TGI: > 25 µM
HOP-62 NSCLC
  GI50: > 25 µM
  TGI: > 25 µM

## COc1ccc(O)c(C(=O)c2ccc(C(=O)N[C@H]3CCCNC[C@@H]3NC(=O)c3ccncc3)cc2)c1F
A549 NSCLC
  GI50: 16.3 µM
  TGI: > 25 µM
MALME-3M melanoma
  GI50: 1.47 µM
  TGI: > 25 µM
OVCAR-3 ovarian
  GI50: 4.3 µM
  TGI: > 23 µM
MDA-MB-231 breast
  GI50: > 25 µM
  TGI: > 25 µM
HS 578T breast
  GI50: 0.0882 µM
  TGI: 12.5 µM
COLO 205 colon
  GI50: > 25 µM
  TGI: > 25 µM
OVCAR-5 ovarian
  GI50: > 25 µM
  TGI: > 25 µM
SNB-19 CNS
  GI50: 10.4 µM
  TGI: > 25 µM
IGROV1 ovarian
  GI50: 3.74 µM
  TGI: > 25 µM
HOP-62 NSCLC
  GI50: 4.39 µM
  TGI: > 21.1 µM

## C=C1C(=O)O[C@H]2[C@H]1CC/C(COC(=O)/C=C\C(=O)NCc1ccc(Cn3c(=O)sn(CCCC)c3=O)cc1)=C\CC[C@@]1(C)O[C@@H]21
A549 NSCLC
  GI50: 1.56 µM
  TGI: 4.16 µM
MALME-3M melanoma
  GI50: 1.35 µM
  TGI: 2.71 µM
OVCAR-3 ovarian
  GI50: 0.229 µM
  TGI: 0.589 µM
MDA-MB-231 breast
  GI50: 0.992 µM
  TGI: 2.34 µM
HS 578T breast
  GI50: 1.3 µM
  TGI: 3.32 µM
COLO 205 colon
  GI50: 0.581 µM
  TGI: 2.37 µM
OVCAR-5 ovarian
  GI50: 1.33 µM
  TGI: 2.75 µM
SNB-19 CNS
  GI50: 1.53 µM
  TGI: 2.93 µM
IGROV1 ovarian
  GI50: 0.556 µM
  TGI: 1.73 µM
HOP-62 NSCLC
  GI50: 1.63 µM
  TGI: 3.46 µM

## CCOC(=O)c1c(NC(=O)c2cccc(C(F)(F)F)c2)sc2c(CN(C)C)c(O)ccc12
A549 NSCLC
  GI50: 3.3 µM
  TGI: 12.7 µM
MALME-3M melanoma
  GI50: 1.71 µM
  TGI: 3.22 µM
OVCAR-3 ovarian
  GI50: 10.1 µM
  TGI: 21.7 µM
MDA-MB-231 breast
  GI50: 4.23 µM
  TGI: 15.2 µM
HS 578T breast
  GI50: 6.78 µM
  TGI: 26.4 µM
COLO 205 colon
  GI50: 2.1 µM
  TGI: 4.66 µM
OVCAR-5 ovarian
  GI50: 4.58 µM
  TGI: 16.7 µM
SNB-19 CNS
  GI50: 10.6 µM
  TGI: 22.8 µM
IGROV1 ovarian
  GI50: 12.2 µM
  TGI: 28.8 µM
HOP-62 NSCLC
  GI50: 13.8 µM
  TGI: 27.7 µM

## Cc1[nH]c(/C=C2\C(=O)Nc3ccccc32)c(C)c1CCC(=O)O
A549 NSCLC
  GI50: 24.3 µM
  TGI: > 100 µM
MALME-3M melanoma
  GI50: 10.7 µM
  TGI: 36.8 µM and 75.6 µM
OVCAR-3 ovarian
  GI50: 28.8 µM
  TGI: > 100 µM and 73.3 µM
MDA-MB-231 breast
  GI50: 20.7 µM
  TGI: > 73.7 µM and 75.9 µM
HS 578T breast
  GI50: 9.45 µM
  TGI: 51.9 µM and > 100 µM
COLO 205 colon
  TGI: 43 µM and 45.9 µM
OVCAR-5 ovarian
  GI50: 21.5 µM
  TGI: 81.8 µM and 97.4 µM
SNB-19 CNS
  GI50: 20.9 µM
  TGI: > 100 µM
IGROV1 ovarian
  TGI: > 100 µM
HOP-62 NSCLC
  GI50: 23.7 µM
  TGI: > 100 µM

## CCN1C(=O)N(CC)C2C1NN=c1s/c(=C3\C(=O)N(CC(C)(C)C)c4ccccc43)c(=O)n12 (stereo unspecified)
A549 NSCLC
  GI50: 4.35 µM
  TGI: 36.4 µM
MALME-3M melanoma
  GI50: 10 µM
  TGI: 25.5 µM
OVCAR-3 ovarian
  GI50: 3.17 µM
  TGI: 12.1 µM
MDA-MB-231 breast
  GI50: 0.151 µM
  TGI: 2.29 µM
HS 578T breast
  GI50: 2.66 µM
  TGI: 19.7 µM
COLO 205 colon
  GI50: 3.31 µM
  TGI: 13.5 µM
OVCAR-5 ovarian
  GI50: 6.18 µM
  TGI: 21.4 µM
SNB-19 CNS
  GI50: 4.05 µM
  TGI: 16 µM
IGROV1 ovarian
  GI50: 3.91 µM
  TGI: 23.6 µM
HOP-62 NSCLC
  GI50: 4.93 µM
  TGI: 22.8 µM

## O=S(=O)(Nc1ccc(F)cc1F)c1ccc(-c2cnc(C3CC3)o2)cc1
A549 NSCLC
  GI50: 0.868 µM
  TGI: > 100 µM
MALME-3M melanoma
  GI50: 0.615 µM
  TGI: 34.2 µM
OVCAR-3 ovarian
  GI50: 0.493 µM
  TGI: 11.9 µM
MDA-MB-231 breast
  GI50: 1.37 µM
  TGI: 21.7 µM
HS 578T breast
  GI50: 0.545 µM
  TGI: 22.7 µM
COLO 205 colon
  GI50: 0.767 µM
  TGI: 17.1 µM
OVCAR-5 ovarian
  GI50: 2.71 µM
  TGI: > 100 µM
SNB-19 CNS
  GI50: 0.638 µM
  TGI: > 100 µM
IGROV1 ovarian
  GI50: 0.535 µM
  TGI: 67.2 µM
HOP-62 NSCLC
  GI50: 0.724 µM
  TGI: 47.6 µM
